# Measurements taken from patent US5410068A, “Succinimidyl trityl compounds and a process for preparing same” (PerSeptive Biosystems, Inc., priority 1989, dated 1995).
# {Biotin} = biotin attached to 5'-amino group
# System: streptavidin agarose
# Assay: binding of biotin labeled oligonucleotides and amplified DNA to streptavidin agarose support
# Settings: purified oligonucleotide
# Protocol: The major component of each sample was isolated by the method described in Example 12.
# Aliquots of the reaction mixture taken at 5 minutes, 55 minutes and 120 minutes were analyzed by reversed-phase HPLC. The analysis indicated complete disappearance of the major component of the crude mixture in favor of a more hydrophobic product within two hours.
# Streptavidin agarose (Gibco BRL, Bethesda Md.) was treated before use. The agarose was washed three times with 200 μl of 150 mM NaCl, 10 mM NaH2 PO4 pH 7.2 containing 0.05% NaN3 and 10% acetonitrile. A 25 μl aliquot of 0.5M NaCl in 80% aqueous acetic acid containing 0.5% (w/v) aminoethanethiol hydrochloride was then washed through the resin and then 100 μl of this solution was allowed to react with the streptavidin agarose for 1 hr. The resin was again washed three times with 100 μl of 150 mM NaCl, 10 mM NaH2 PO4 pH 7.2 containing .05% NaN3 and 10% acetonitrile.
# Following amplication, a portion of each PCR reaction (50 μl) was incubated with pretreated (see Example 16) streptavidin agarose (100 μl) for 30 minutes. At the end of the incubation, the supernatant was removed and the streptavidin agarose was washed twice with 100 μl of 150 mM NaCl, 10 mM NaH2 PO4 pH 7.2 containing 0.05% NaN3 and 10% acetonitrile (hereafter called streptavidin buffer).The washings were combined with the supernatant. […]
substance,measurement,value
"new product: biotinylated 5'-amino group containing partially protected 15-mer 5'-TCCCAGTCACGACGT-3' (treated with 1,6-diaminohexane) (DNA, 5' {Biotin}, backbone and methylation of C not given here; biotin via aminohexyl, partially protected)",binding to streptavidin agarose,shown to bind to streptavidin agarose
